{
  "source": "patent US8883743B2",
  "about": "“Methods for treating obesity employing an SGLT2 inhibitor” (AstraZeneca AB, priority 2007, dated 2014)",
  "key": {"[1]": {"description": "Patients with type 2 diabetes were treated with placebo, 5 mg dapagliflozin propylene glycol, 25 mg dapagliflozin propylene glycol, or 100 mg dapagliflozin propylene glycol."}, "[2]": {"assay": "Chronic weight loss study in diet-induced obese (DIO) rats", "format": "in vivo, rat", "description": "DIO rats were sorted into treatment groups based on body weight, total kilocalories consumed, and body composition (via echo MRI). […] To assess the importance of compensatory over-eating in drug-treated animals, a subgroup of rats that received 5 mg/kg of dapagliflozin was restricted to the food intake of the placebo group. Body weight and the weight of both diets were determined daily. Respiratory quotient data were obtained on days 2 and 15 of the study, echo MRI was obtained on day 22, and blood was collected for a fasting clinical chemistry tests on day 27.\nPercent weight changes were calculated as […].\nThe weight loss study with Compound IIIA (0.1, 0.3, 1, and 3 mg/kg) was performed using the same methods as the Dapagliflozin study."}, "[3]": {"assay": "12-week once-daily oral treatment of treatment naive type II diabetes mellitus patients (glucosuria, body weight, BMI)", "format": "in vivo, human", "details": "type II diabetic patients, each dose group, 12 weeks", "description": "Treatment naive type II diabetes mellitus patients, n=389, with inadequate blood glycemic control and low mean glucosuria at baseline were given once-daily oral treatments with dapagliflozin (2.5, 5, 10, 20, or 50 mgs), metformin XR® (750 mg titrated to 1500 mgs), or placebo over 12-weeks."}},
  "data": [
    {"smiles": "CCOc1ccc(Cc2cc([C@@H]3O[C@H](CO)[C@@H](O)[C@H](O)[C@H]3O)ccc2Cl)cc1", "note": "[Dapagliflozin-PGS, dapagliflozin propylene glycol hydrate]", "values": [
      {"measurement": "glucosuric effects: loss of calories in the urine (glucose excretion/day)", "setting": "[1]; healthy subjects, single doses 5, 20, 50 or 100 mg, indirect comparison versus GSK 869,682 (FIG. 1)", "result": "significant loss of calories in the urine"},
      {"measurement": "24-hour urine glucose excretion compared to placebo", "setting": "[1]; subjects with type 2 diabetes, 5 mg, 25 mg and 100 mg, 14-day study (FIG. 2)", "result": "significantly higher urine glucose excretion"},
      {"measurement": "weight loss when compound-induced overeating was prevented (pair fed to vehicle group)", "setting": "[2]; DIO rats, 5 mg/kg subgroup restricted to food intake of placebo group (FIG. 4)", "result": "weight loss was greater"},
      {"measurement": "weight loss versus vehicle", "setting": "[2]; DIO rats, oral 0.5, 1 and 5 mpk daily over 25 days, p<0.05 (FIG. 4)", "result": "significant weight loss"},
      {"measurement": "proportion of patients achieving a 5% weight reduction versus placebo", "setting": "[3]", "result": "higher proportion"}
    ]},
    {"smiles": "CCc1ccc(Cc2cc([C@@H]3O[C@H](CO)[C@@H](O)[C@H](O)[C@H]3O)ccc2Cl)cc1", "note": "[Compound IIIA, (2S,3R,4R,5S,6R)-2-(4-chloro-3-(4-ethylbenzyl)phenyl)-6-(hydroxymethyl)tetrahydro-2H-pyran-3,4,5-triol]", "values": [
      {"measurement": "weight loss", "setting": "[2]; DIO rats, 0.1, 0.3, 1 and 3 mg/kg daily over 25 days (FIG. 5)", "result": "significant weight loss in diet-induced obese rats in a dose proportional manner"}
    ]}
  ]
}
